Paper PMC10769324 (bioRxiv, 2024)

Legend:
5-HT2A [1] = molecular target: T1, 5-HT2A (Homo sapiens, UniProt P28223); assay type: binding; conditions: [3H]-LSD 0.5 nM, HEK293 membranes; for log(Ki): printed as log(Ki) with negative sign
5-HT2A [2] = molecular target: T1, 5-HT2A; conditions: Gαq dissociation vs β-arrestin2 recruitment, versus 5-HT

T1 sequence (P28223 whole entry): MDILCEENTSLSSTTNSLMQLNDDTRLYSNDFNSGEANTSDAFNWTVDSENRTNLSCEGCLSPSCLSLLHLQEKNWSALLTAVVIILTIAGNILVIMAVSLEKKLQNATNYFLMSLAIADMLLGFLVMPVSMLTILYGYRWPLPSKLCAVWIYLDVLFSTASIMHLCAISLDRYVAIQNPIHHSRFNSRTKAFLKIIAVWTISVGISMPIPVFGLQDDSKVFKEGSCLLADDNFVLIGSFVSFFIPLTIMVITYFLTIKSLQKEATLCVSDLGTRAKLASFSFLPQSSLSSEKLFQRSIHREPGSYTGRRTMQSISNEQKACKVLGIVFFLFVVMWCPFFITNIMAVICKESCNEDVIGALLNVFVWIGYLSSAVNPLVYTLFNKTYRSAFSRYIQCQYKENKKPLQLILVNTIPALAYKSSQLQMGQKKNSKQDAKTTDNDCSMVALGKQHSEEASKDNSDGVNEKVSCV

SMILES	Ki (5-HT2A [1])	log(Ki) (5-HT2A [1])	Apparent Bias Factor (5-HT2A [2])
NCC1Cc2cc(F)ccc2N(C(=O)Cc2cc(F)ccc2Br)C1 (stereo not shown) [Compound Z7704262288]	15 nM	–	–
O=C(c1cc(C2CCNC2)[nH]n1)N1CCC(c2cccc(Cl)c2)C1 (stereo not shown) [Compound Z3808146201]	–	−6.51 ± 0.096	–
c1ccc(O[C@H]2CCN(Cc3ccc(-c4ccn[nH]4)o3)C2)cc1 [Compound Z2449215308]	162 nM	−6.79 ± 0.100	–
CN(C(=O)c1cn[nH]n1)C1CCN(CCc2cccc(Cl)c2Cl)C1 (stereo not shown) [Compound Z7619689892]	17 nM	−7.78 ± 0.077	–
Clc1ccc(C#CCN2CCCC(c3ccn[nH]3)C2)cc1 (stereo not shown) [Compound Z1348472291]	–	−6.65 ± 0.083	–
CCN(Cc1cc(Br)ccc1O)C(=O)C(N)Cc1ccco1 (stereo not shown) [Compound Z3865153101]	114 nM	−6.94 ± 0.099	–
NCCc1c[nH]c2ccc(O)cc12 [serotonin]	–	–	1.0
COc1ccc(COCCN(C)C(C)Cc2ccc(O)cc2)cc1 (stereo not shown) [Compound Z1441676226]	–	−6.77 ± 0.087	–
COc1ccccc1CC1CCN(CC(=O)c2cc(C)[nH]c2C)C1 (stereo not shown) [Compound Z7619689903]	344 nM	−6.46 ± 0.086	–
C=CCNC(=O)C(C)N1CCCC(c2ccc(O)cc2)C1 (stereo not shown) [Compound Z3517963976]	113 nM	−6.95 ± 0.085	–
CC(C)C(N)CCN(C)C(=O)C(=O)Nc1cc2ccccc2cc1Cl (stereo not shown) [Compound Z5247694451]	–	−7.15 ± 0.073	–
Oc1ccc(C2=CCN(CC3CC34CC4)CC2)cc1 (stereo not shown) [Compound Z2945615615]	24 nM	−7.62 ± 0.104	–
Cc1cccc(OCCCC(=O)N2CCNCc3ccccc32)c1 [Compound Z2393190959]	–	−6.51 ± 0.085	–
NC1Cc2ccccc2N(Cc2cc(O)cc(Br)c2)C1 (stereo not shown) [Compound Z7619689909]	72 nM	−7.14 ± 0.078	–
C=C/C=C/CCN1CCC(O)(c2cccc(Br)c2)C1 (stereo not shown) [Compound Z5247693129]	–	−6.49 ± 0.094	–
